Measurements as given in patent US7989649B2, “Tumor imaging compounds” (Emory University, priority 2002, dated 2011).

Legend:
[1] = cited from earlier work
[2] = test system: human melanoma transplants; conditions: cited from earlier work
[3] = normal Fischer rats, 60 minutes; cited from earlier work
9 L gliosarcoma tumor = conditions: same rodent tumor model, 60 minutes; cited from earlier work
[4] = healthy Copenhagen rats, 60 minutes
[5] = nude Swiss mice bearing human melanoma transplants, 60 minutes

CC(C)(N)C(=O)O [AIB, α-aminoisobutyric acid]
mean RC in pancreas and kidneys ([1]; rats, within 5-15 minutes post-injection): greater than 1.8
mean RC in pancreas and kidneys ([2]; mice, within 5-15 minutes post-injection): greater than 1.8

CC([11CH3])(N)C(=O)O (stereo not drawn) [[^11C]AIB, [^11C]α-aminoisobutyric acid]
mean relative concentration (mean RC), brain [1, 4]: 0.2
mean relative concentration (mean RC), kidneys [1, 4]: 10.3
mean relative concentration (mean RC), pancreas [1, 4]: 6.0

CC(C)(N)C(=O)O [[^14C]AIB]
mean RC, brain [2, 5]: 0.23
mean RC, kidneys [2, 5]: 3.4
mean RC, pancreas [2, 5]: 8.6

N[C@]1(C(=O)O)C[C@@H](F)C1 [trans-[^18F]FACBC, trans-1-amino-3-[^18F]fluorocyclobutyl-1-carboxylic acid]
pancreatic uptake [3]: 3.4 % ID/g

OC[C@H]1OC(O)[C@H]([18F])[C@@H](O)[C@@H]1O (stereo partly drawn) [[^18F]FDG, 2-[^18F]fluorodeoxyglucose]
uptake in normal brain (9 L gliosarcoma tumor): 1.30 % ID/g
uptake in tumor tissue (9 L gliosarcoma tumor): 1.05 % ID/g

CN1C(C)(C(=O)OC(C)(C)C)COS1(=O)=O (stereo not drawn) [Compound 14b, 3,4-dimethyl-1,2,3-oxathiazolidine-4-carboxylic acid tert-butyl ester 2,2-dioxide]
melting point: 54 to 55 °C
